# Measurements taken from article PMC12040169 (PLOS Biology, 2025).
# Assay: in vitro
# Conditions: human, hela cells, % viability
SMILES,"viability at 28.5 h, 10 µM","viability at 28.5 h, 10 µM (bulk resorufin, single well)"
CC(C)Nc1nccnc1Sc1cccc(C(=O)O)c1 [CBK093581],96.6%,
CC(C)Nc1cc(Sc2cccc(C(=O)O)c2)ncn1 [CBK093583],117%,
O=C(O)c1cccc(Sc2cc(N3CCCC3)ncn2)c1 [CBK093586],113%,
O=C(O)c1cccc(Sc2cc(C(F)(F)F)ccn2)c1 [CBK093590],88.7%,
CCc1[nH]nc(C)c1Cc1c(Cl)cccc1Cl [CBK093598],106%,
CN(c1nc(-c2cccnc2)cn2ccnc12)C1CCCCC1 [CBK093609],87%,
CC(C)(C)c1ccc(S(N)(=O)=O)cc1NC(=O)Nc1cccc(F)c1 [CBK093643],100%,
NC1=NNC2=C(c3ccc(Cl)cc3Cl)NNN12 [CBK093660],86.4%,
COc1ccc(C2=C3NN=C(N)N3NN2)cc1 [CBK093662],84.8%,
NC1=C2NC(c3cccc(C(=O)O)c3)=NN2N(c2ccccc2)N1 [CBK093663],98.7%,
O=C(Nc1cccc(-c2ccc3c(c2)COC2(CCNCC2)O3)c1)c1cnccn1 [CBK093670],,90.5%
CCc1ccc(C(=O)Nc2cccc(-c3ccc4c(c3)COC3(CCNCC3)O4)c2)cc1 [CBK093680],,67.5%
CC1(C)CC(=O)C=C(C(=O)Nc2cccc(-c3ccc4c(c3)COC3(CCNCC3)O4)c2)O1 [CBK093704],,97.8%
CC(C)Nc1nccnc1Sc1cccc(O)c1 [CBK093725],111%,
CC(C)Nc1cncc(Sc2ccccc2N)n1 [CBK093726],91.7%,
CC(C)Nc1cc(Sc2ccccc2N)ncn1 [CBK093729],91.6%,
CC(C)Nc1nc2cc(Cl)c(Cl)cc2nc1Sc1cccc(O)c1 [CBK093732],94.8%,
c1ccc(Sc2nccnc2N2CCCC2)nc1 [CBK093734],87.7%,
Cc1csc(Sc2nccnc2N2CCCC2)n1 [CBK093735],90.3%,
COCc1nnc(Sc2nccnc2N2CCCC2)s1 [CBK093736],95.4%,
Cc1csc(Sc2cc(N3CCCC3)ncn2)n1 [CBK093745],100%,
COCc1nnc(Sc2cc(N3CCCC3)ncn2)s1 [CBK093746],88.4%,
Oc1cccc(Sc2cc(N3CCCC3)ncn2)c1 [CBK093749],97.4%,
Nc1nnc(Sc2nc3ccccc3nc2N2CCCC2)s1 [CBK093750],88.4%,
Cc1nnc(Sc2nc3ccccc3nc2N2CCCC2)s1 [CBK093751],89.1%,

SMILES,"viability at 28.5 h, 10 µM","viability at 28.5 h, 10 µM (bulk resorufin, single well)"
Oc1cccc(Sc2nc3ccccc3nc2N2CCCC2)c1 [CBK093753],88.5%,
Cn1ccnc1Sc1ncccc1C(F)(F)F [CBK093759],91.2%,
COc1ccc(Sc2ncccc2C(F)(F)F)cc1OC [CBK093760],100%,
Nc1ccccc1Sc1cc(C(F)(F)F)ccn1 [CBK093761],91.4%,
COc1ccc(Sc2cccc(C(F)(F)F)n2)cc1OC [CBK093769],94%,
COc1ccc(Sc2nccc(C(F)(F)F)n2)cc1OC [CBK093772],90.4%,
Cc1nnc(Sc2nc3ccccc3nc2C(F)(F)F)s1 [CBK093774],94.8%,
Cc1csc(Sc2nc3ccccc3nc2C(F)(F)F)n1 [CBK093775],94.9%,
Nc1ccccc1Sc1nc2ccccc2nc1C(F)(F)F [CBK093776],96.1%,
FC(F)(F)c1nc2ccccc2nc1Sc1ccccn1 [CBK093781],89%,
FC(F)(F)c1ccnc(Sc2ccccn2)n1 [CBK093786],99.3%,
COCc1nnc(Sc2nccc(C(F)(F)F)n2)s1 [CBK093790],99.5%,
COc1ccc(Sc2nc3cc(Cl)c(Cl)cc3nc2NC(C)C)cc1OC [CBK093792],103%,
FC(F)(F)c1ccnc(Sc2ccncc2)c1 [CBK093793],92.3%,
Nc1nnc(Sc2nc3ccccc3nc2C(F)(F)F)s1 [CBK093795],94.6%,
Cn1ccnc1Sc1cc(C(F)(F)F)ccn1 [CBK093798],80.5%,
Oc1cccc(Sc2nccc(C(F)(F)F)n2)c1 [CBK093801],96.6%,
FC(F)(F)c1ccnc(Sc2nc[nH]n2)n1 [CBK093806],93.1%,
c1cc(-c2ccc3c(c2)COC2(CCNCC2)O3)c2cc[nH]c2c1 [CBK093812],,108%
COc1ccc(-c2ccc(OC3CCNCC3)cc2)c(OC)c1 [CBK093816T],91.2%,
Cc1ccc2oc(-c3ccc(O)cc3)nc2c1 [CBK093878],96.2%,
S=c1[nH]cnc2scc(-c3ccc(Cl)cc3)c12 [CBK094069],76.5%,
Cc1c(C#N)c2ccc(O)c(CN(C)C)c2n1-c1ccccc1 [CBK094247C],98.2%,
Cc1ccccc1/N=C1/NC(=O)/C(=C/c2ccc([N+](=O)[O-])o2)S1 [CBK094584],96.6%,
CCOc1ccc(-c2csc(NC(=O)c3cccnc3)n2)cc1 [CBK094747],89.2%,

SMILES,"viability at 28.5 h, 10 µM","viability at 28.5 h, 10 µM (bulk resorufin, single well)"
O=C1CC(c2ccc(Br)cc2)Nc2ccc3ccccc3c21 (centres unmarked) [CBK094798],93.4%,
CC(C)(C)c1ccc(-n2cc(-c3ccc(F)cc3F)nn2)cc1 [CBK094818],85.4%,
Cc1ccc(-c2csc(NC(=O)c3ccc(F)cc3)n2)cc1 [CBK095107],85.2%,
O=C1S/C(=C\c2ccc(F)c(Br)c2)C(=O)N1c1cccc(Cl)c1 [CBK095450],87.7%,
CC(C)(C)c1ccc(S(=O)(=O)N2CCSC2)cc1 [CBK095672],101%,
O=C(Nc1nnc(C(F)(F)F)s1)c1cc(Cl)ccc1Cl [CBK095734],86.3%,
COc1ccc(CCNC(=O)CSc2nc(N)c3c4c(sc3n2)CCCC4)cc1 [CBK095784],94.2%,
CC(=O)Nc1ccc(N2C(=O)CSC23C(=O)Nc2ccccc23)cc1 (centres unmarked) [CBK095916],91.7%,
CCN(CC)c1ccc(NC(=O)COc2ccccc2)cc1 [CBK096048],91.9%,
CCOC(=O)C1CCN(S(=O)(=O)c2ccc(Cl)s2)CC1 [CBK096109],94.9%,
C=CCn1c(S)nnc1-c1ccc(Br)cc1 [CBK096756],77.3%,
O=C(O)c1ccccc1SC(C[N+](=O)[O-])c1ccccc1Cl (centres unmarked) [CBK097071],95.6%,
CCOC(=O)c1sc2nc(C)cc(C)c2c1N [CBK097355],82.9%,
COc1ccc(S(=O)(=O)N2CCSC2)cc1C [CBK097882],106%,
Nc1ncnc2sc3c(c12)CCC3 [CBK097952],89.7%,
CCOc1ccc(/C=C2/NC(=O)NC2=O)cc1Br [CBK098031],91.6%,
NC(=O)c1ccc(-c2ccc(/C=C3/C(=O)NN(c4ccc(F)cc4)C3=O)o2)cc1 [CBK098345],89.9%,
Cc1ccc(N2CCN(S(=O)(=O)c3ccc(I)cc3)CC2)c(C)c1 [CBK098562],91.7%,
NC(=O)c1cnn(-c2cc(Oc3ccccc3)ncn2)c1N [CBK098664],105%,
CSc1ccccc1-n1nnnc1SCc1ccccc1 [CBK099033],83%,
CCOc1ccccc1C(=O)Nc1ccc(O)cc1 [CBK099037],91.8%,
COC(=O)c1ccc(NC(=S)NC(=O)c2cncc(Br)c2)cc1 [CBK099257],87.9%,
CCCCOc1ccc(S(=O)(=O)N2CCN(c3cccc(C)c3C)CC2)cc1 [CBK099293],114%,
Cc1ccc(Oc2cc(-n3nc(C)c(C(N)=O)c3N)ncn2)cc1 [CBK099753],95.7%,
COc1ccc(OC)c(NS(=O)(=O)c2ccccc2)c1 [CBK099989],73%,

SMILES,"viability at 28.5 h, 10 µM","viability at 28.5 h, 10 µM (bulk resorufin, single well)"
COc1cc(/C=C2/SC(=O)NC2=O)cc(I)c1O [CBK100075],92.1%,
O=C(O)C1CCN(S(=O)(=O)c2ccc(F)cc2)CC1 [CBK100196],102%,
Cc1ccc(C)c(N2CCN(S(=O)(=O)c3ccc(-c4ccccc4)cc3)CC2)c1 [CBK100692],104%,
Cc1ccc(S(=O)(=O)N2CCCC(C(=O)O)C2)cc1 (centres unmarked) [CBK100948],88.6%,
Cc1cc(C)c(-n2nnnc2SCc2ccc(F)cc2)c(C)c1 [CBK100994],103%,
COc1cccc(C(=O)Nc2nc(-c3ccc(C(C)C)cc3)cs2)c1 [CBK101110],87%,
COc1ccc(-n2c(C)c(C#N)c3cc(Br)c(O)c(Br)c32)cc1 [CBK101113],91.6%,
CCOC(=O)c1cnn2c(C)cc(C)nc12 [CBK101119],103%,
N#CC1CCCc2c1[nH]c1ccc(Cl)cc21 (centres unmarked) [CBK101438],63.9%,
O=C(O)C1CCCCN1S(=O)(=O)c1ccc(Br)cc1 (centres unmarked) [CBK101789],88.6%,
Fc1ccc(-n2nnnc2SCc2ccc(Cl)cc2)cc1Cl [CBK102075],97.5%,
N#Cc1c(N)ncnc1-c1ccccc1 [CBK102172],84.2%,
Cc1ccc(S(=O)(=O)Nc2nc(C)cs2)cc1 [CBK102326],100%,
COc1c(Br)cc(/C=C2\SC(=O)NC2=O)cc1Br [CBK102455],101%,
CCCc1[nH]nc(O)c1C(=O)c1c(F)cccc1Cl [CBK103524],103%,
CCCC1=NN=C(c2cc(C(F)(F)F)ccc2C(F)(F)F)C1C(=O)OCC (centres unmarked) [CBK103527],118%,
COc1cc(OC)nc(CC(=O)O)n1 [CBK103537],104%,
CC[C@@H]1COCCN1C(=O)c1sc2ccccc2c1Cl [CBK103641],90.3%,
CC(C)Nc1nc2ccccc2nc1SCCOc1ccccc1 [CBK103668],89.8%,
CC(C)Nc1nc2ccccc2nc1SCCN(C)C [CBK103672],115%,
c1ccc(OCCSc2cc(N3CCCC3)ncn2)cc1 [CBK103689],113%,
FC(F)(F)c1ccnc(SCCc2ccccn2)c1 [CBK103709],105%,
FC(F)(F)c1ccc(SCc2cccs2)nc1 [CBK103711],96.3%,
